Assay results taken from US20170037007A1, “SUBSTITUTED N-(2-(AMINO)-2OXOETHYL)BENZAMIDE INHIBITORS OF AUTOTAXIN AND THEIR PREPARATION AND USE IN THE TREATMENT OF LPA-DEPENDENT OR LPA-MEDIATED DISEASES” (X-Rx, Inc., priority 2014, published 2017).

What follows are molecules tested against T1, Autotaxin (Homo sapiens, UniProt Q13822) (assay: Autotaxin LPC Cascade Assay). Conditions: 5 nM autotaxin, 100 μM LPC, choline oxidase/HRP/Ampliflu Red fluorescence readout; read-out: IC50 ATX activity values, IC50.
T1 construct: purchased X-Chem
Format: biochemical
Experimental: Autotaxin LPC Cascade Assay
HA130 and Test Compounds:
Highest final concentration is […] for HA130 (Echelon, B-0701) and 30 μM for test compounds. Prepare a 1 mM stock of HA130 and a 3 mM stock of each compound in 100% DMSO. Perform a 1:3 serial dilution in DMSO (transfer 5 μl of compound to 10 μl of DMSO). Add 240 μl of buffer to generate a top working concentration of 40 µM (HA130) and 120 µM (test compound) in 4% DMSO.
Ampliflu Red—Prepare a stock of 5 mM from 100 mM in 100% DMSO. Further dilute to a working concentration of 400 μM in buffer (8% DMSO).
Together with compound this yields a 2% DMSO final concentration.
Choline Oxidase/HRP—0.8 U/ml CO and 8 U/ml HRP.
Add 5 μl of ATX and 5 μl of compound in a 384 well plate (Corning 3676). Incubate for 10 mins at RT. Add 5 μl of LPC and incubate for 1 hr on the plate shaker. Prepare the CO/HRP and AR prior to use. Add 2.5 μl of CO/HRP and follow with 2.5 μl AR. Note order of addition, CO/HRP mix before AR. Read fluorescence intensity (λex/λem: 530/590 nm) kinetically for 30 min at RT on the Tecan M1000.

IC50, 10 to 100 nM:
CC(C)[C@@H](NC(=O)c1cc(OC(F)(F)F)ccc1F)C(=O)N1CCC(C)(Nc2ccc(S(C)(=O)=O)cc2)CC1 [Example 6, (R)-2-Fluoro-N-(3-methyl-1-(4-methyl-4-(4-(methylsulfonyl)phenylamino)piperidin-1-yl)-1-oxobutan-2-yl)-5-(trifluoromethoxy)benzamide]

IC50, 100 to 500 nM:
CC(C)[C@@H](NC(=O)c1cccc(OC(F)(F)F)c1)C(=O)N1CCC(C)(NCc2ccc(S(C)(=O)=O)cc2)CC1 [Example 41, (R)—N-(3-Methyl-1-(4-methyl-4-((4-(methylsulfonyl)benzyl)amino)piperidin-1-yl)-1-oxobutan-2-yl)-3-(trifluoromethoxy)benzamide]
CC(C)[C@@H](NC(=O)c1cc(OC(F)(F)F)ccc1F)C(=O)N1CCC(C)(Nc2ccccc2)CC1 [Example 10, (R)-2-Fluoro-N-(3-methyl-1-(4-methyl-4-(phenylamino)piperidin-1-yl)-1-oxobutan-2-yl)-5-(trifluoromethoxy)benzamide]
CC(C)[C@@H](NC(=O)c1cc(C(F)(F)F)ccc1F)C(=O)N1CCC(C)(Nc2ccc(S(C)(=O)=O)cc2)CC1 [Example 27, (R)-2-Fluoro-N-(3-methyl-1-(4-methyl-4-(4-(methylsulfonyl)phenylamino)piperidin-1-yl)-1-oxobutan-2-yl)-5-(trifluoromethyl)benzamide]
CC(C)[C@@H](NC(=O)c1cc(OC(F)F)ccc1F)C(=O)N1CCC(C)(Nc2ccc(S(C)(=O)=O)cc2)CC1 [Example 28, (R)-5-(Difluoromethoxy)-2-fluoro-N-(3-methyl-1-(4-methyl-4-(4-(methylsulfonyl)phenylamino)piperidin-1-yl)-1-oxobutan-2-yl)benzamide]
CC(C)[C@@H](NC(=O)c1cc(OC(F)(F)F)ccc1F)C(=O)N1CCC(C)(Nc2ccc(C(=O)O)cc2)CC1 [Example 11, (R)-4-((1-(2-(2-Fluoro-5-(trifluoromethoxy)benzamido)-3-methylbutanoyl)-4-methylpiperidin-4-yl)amino)benzoic acic]
COc1ccc(NC2(C)CCN(C(=O)[C@H](NC(=O)c3cc(OC(F)(F)F)ccc3F)C(C)C)CC2)cc1 [Example 12, (R)-2-Fluoro-N-(1-(4-((4-methoxyphenyl)amino)-4-methylpiperidin-1-yl)-3-methyl-1-oxobutan-2-yl)-5-(trifluoromethoxy)benzamide]

IC50, 500 to 5000 nM:
CC(C)[C@@H](NC(=O)c1cc(OC(F)(F)F)ccc1F)C(=O)N1CCC(C)(NC(=O)c2ccc(S(C)(=O)=O)cc2)CC1 [Example 37, (R)-2-Fluoro-N-(3-methyl-1-(4-methyl-4-(4-(methylsulfonyl)benzamido)piperidin-1-yl)-1-oxobutan-2-yl)-5-(trifluoromethoxy)benzamide]
COc1ccc(CNC2(C)CCN(C(=O)[C@H](NC(=O)c3cccc(OC(F)(F)F)c3)C(C)C)CC2)cc1 [Example 43, (R)—N-(1-(4-((4-Methoxybenzyl)amino)-4-methylpiperidin-1-yl)-3-methyl-1-oxobutan-2-yl)-3-(trifluoromethoxy)benzamide]
CCc1ccc(F)c(C(=O)N[C@@H](C(=O)N2CCC(Oc3ccc(S(C)(=O)=O)cc3)(C(=O)N(C)C)CC2)C(C)C)c1 [Example 16, (R)-1-(2-(5-Ethyl-2-fluorobenzamido)-3-methylbutanoyl)-N,N-dimethyl-4-(4-(methylsulfonyl)phenoxy)piperidine-4-carboxamide]
CC(C)[C@@H](NC(=O)c1cc(C(C)(C)C)ccc1F)C(=O)N1CCC(C)(Nc2ccc(S(C)(=O)=O)cc2)CC1 [Example 29, (R)-5-tert-Butyl-2-fluoro-N-(3-methyl-1-(4-methyl-4-(4-(methylsulfonyl)phenylamino)piperidin-1-yl)-1-oxobutan-2-yl)benzamide]

IC50, ≥ 10000 nM:
COCC1(Nc2ccccc2)CCN(C(=O)[C@H](NC(=O)c2cccc(C)c2)C(C)C)CC1 [Example 17, (R)—N-(1-(4-(Methoxymethyl)-4-(phenylamino)piperidin-1-yl)-3-methyl-1-oxobutan-2-yl)-3-methylbenzamide]
